Measurements reported in article PMC6997118, “Long-acting CCK analogue NN9056 lowers food intake and body weight in obese Göttingen Minipigs” (International Journal of Obesity (2005), 2019).
pEC50, pIC50: −log10 of the molar value.

Legend:
[1] = biological target: T1, porcine CCK-1 receptor (Sus scrofa, UniProt I3LFK5); assay: biochemical; settings: pig CCK-1 receptor over-expressed in COS-7 cells, SPA, n = 3; read-out: Binding Mean IC50
T1 construct: expressed in transfected cells; host or cells: COS-7
T1 sequence (I3LFK5 1-428): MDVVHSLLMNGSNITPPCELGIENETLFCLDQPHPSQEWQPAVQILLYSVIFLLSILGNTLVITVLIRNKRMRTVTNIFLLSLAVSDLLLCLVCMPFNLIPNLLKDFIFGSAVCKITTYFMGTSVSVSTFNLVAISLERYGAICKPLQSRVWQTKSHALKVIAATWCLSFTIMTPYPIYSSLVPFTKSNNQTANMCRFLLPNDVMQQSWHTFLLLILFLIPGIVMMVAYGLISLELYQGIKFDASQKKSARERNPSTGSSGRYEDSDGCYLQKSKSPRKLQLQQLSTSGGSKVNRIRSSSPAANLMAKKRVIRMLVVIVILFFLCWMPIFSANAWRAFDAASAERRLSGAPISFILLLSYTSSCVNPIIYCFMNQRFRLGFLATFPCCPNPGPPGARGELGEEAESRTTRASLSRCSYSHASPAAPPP

[2] = biological target: T1, porcine CCK-1 receptor; assay: cell-based; settings: pig CCK-1 receptor in COS-7 cells, IP-One, n = 3; read-out: Activation Mean EC50
[3] = biological target: T2, porcine CCK-2 receptor (Sus scrofa, UniProt A0A287A2K5); assay: cell-based; settings: pig CCK-2 receptor in COS-7 cells, IP-One, n = 3; highest dose tested 100 nM; read-out: Activation Mean EC50
T2 construct: expressed in transfected cells; host or cells: COS-7
T2 sequence (A0A287A2K5 whole entry): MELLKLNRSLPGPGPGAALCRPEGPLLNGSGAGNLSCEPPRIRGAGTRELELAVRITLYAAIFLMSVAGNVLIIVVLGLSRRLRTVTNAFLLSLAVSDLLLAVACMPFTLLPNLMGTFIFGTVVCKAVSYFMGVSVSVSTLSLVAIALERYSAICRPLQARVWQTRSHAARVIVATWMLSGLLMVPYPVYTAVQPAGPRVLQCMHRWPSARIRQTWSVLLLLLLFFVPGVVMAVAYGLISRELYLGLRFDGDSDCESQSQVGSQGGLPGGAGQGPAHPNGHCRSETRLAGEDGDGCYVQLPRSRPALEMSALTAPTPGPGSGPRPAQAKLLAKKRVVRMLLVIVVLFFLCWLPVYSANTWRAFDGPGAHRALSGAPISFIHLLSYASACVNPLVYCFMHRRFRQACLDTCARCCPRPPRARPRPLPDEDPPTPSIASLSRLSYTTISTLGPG

[4] = obese humans, after 24 weeks of treatment; cited from earlier work
[5] = set-up: method as in PMID 7084608; settings: cited from earlier work

Compound: CSCC[C@H](NC(=O)[C@H](Cc1ccc(OS(=O)(=O)O)cc1)NC(=O)[C@@H](N)CC(=O)O)C(=O)NCC(=O)N[C@@H](Cc1c[nH]c2ccccc12)C(=O)N[C@@H](CCSC)C(=O)N[C@@H](CC(=O)O)C(=O)N[C@@H](Cc1ccccc1)C(N)=O [CCK-8]
- pIC50 [1]: 9.70
- pEC50 [2]: 9.66
- pEC50 [3]: 9.49

Compound: CC(C)N(C(=O)CN1C(=O)[C@H](NC(=O)Nc2cccc(C(=O)O)c2)C(=O)N(c2ccccc2)c2ccccc21)c1ccccc1 [GI181771X]
- Weight loss [4]: failed to induce weight loss

Compound: Cholecystokinin [CCK]
- Circulating half-life [5]: < 5 min
